# Several values for one entry are separate records, joined by “and”; a condition that tells them apart may be missing. Identical values can stand only once.
# What was measured:
# [1] = FT3 in serum by ultrafiltration (UF), LC-MS/MS; settings: for Concentration UF, Average: average of 10 samples; for Concentration UF: serum, individual samples No. 1-10
# Protocol: (§1) In a method in this embodiment, ultrafiltration and equilibrium dialysis are performed to separate free triiodothyronine (FT3) at 20° C., 25° C., 30° C., and 37° C., respectively. In practice, another temperature value may be used. Where
# (§2) Ultrafiltration: 100 μL 4-hydroxyethyl piperazine ethanesulfonic acid solution is added to a 100 μL serum, and the solution is mixed well by pipettes. Subsequently, the obtained mixture is transferred to the activated ultrafiltration tube and centrifuged at 20° C., 25° C., 30° C., and 37° C., and 2000 g for 1 h, respectively.
# Internal standard precipitation: 100 μL internal standard solution is added to 100 μL ultrafiltrate, and vortexed well for 3 min. Then, centrifugation is performed at 4° C. and 12000 rpm for 10 min.
# (§3) After the free T3 is separated by using ultrafiltration and equilibrium dialysis, the free T3 is detected by the following high-performance liquid chromatography tandem mass spectrometry parameters:
# (§4) chromatographic column: Acquity UPLC BEH C18 (2.1×50 mm, 1.7 μm); column oven temperature: 30° C.; mobile phases: 0.1% formic acid aqueous solution (A)˜0.1% formic acid methanol (B); and gradient elution: […]
# (§5) ion source: electrospray ion source in positive ion mode; spray voltage: 5500 V; ion source temperature: 550° C.; GS1: 50 psi; GS2: 50 psi; curtain gas: 30 psi; and multiple reaction monitoring: […]
# [2] = FT3 in serum by equilibrium dialysis (ED), LC-MS/MS; settings: for Concentration ED, Average: average of 10 samples; for Concentration ED: serum, individual samples No. 1-10
# Protocol: as §1
# (§6) Equilibrium dialysis: 200 μL 4-hydroxyethyl piperazine ethanesulfonic acid solution is placed on the buffer side of the equilibrium plate, 200 μL serum is placed on the sample side. Subsequently, the equilibrium dialysis plate is dialyzed at 20° C., 25° C., 30° C., and 37° C. for 22 h, respectively.
# Internal standard precipitation: 100 μL internal standard solution is added to 100 μL dialysate and vortexed well for 3 min. Then, centrifugation is performed at 4° C. and 12000 rpm for 10 min.
# as §3, §4, §5
# [3] = free testosterone in serum by equilibrium dialysis (ED), LC-MS/MS; settings: for Concentration ED, Average: average of 10 samples; for Concentration ED: serum, individual samples No. 1-10
# Protocol: (§7) In practice, other temperatures can also be used. Subsequently, high-performance liquid chromatography tandem mass spectrometry is used for detection, and results are shown in Table 1. Where
# as §6, with “the equilibrium dialysis plate, 200” for “the equilibrium plate, 200”
# (§8) Solid-phase extraction: 20 μL internal standard solution is added to 200 μL dialysate, and vortexed well. The obtained mixture is added to an activated HLB solid-phase extraction: conditioning is performed twice by 300 μL 10% methanol aqueous solution, elution is performed twice by using 300 μL 90% methanol aqueous solution, eluent is merged and blown to dry by nitrogen, and finally, the obtained product is redissolved by 100 μL 50% methanol aqueous solution.
# (§9) Chromatographic column: Acquity UPLC BEH C18 (2.1×50 mm, 1.7 μm); column oven temperature: 40° C.; mobile phases: 0.1% formic acid 2 mM ammonium acetate aqueous solution (A)˜methanol (B); and gradient elution: […]
# as §5
# [4] = free testosterone in serum by ultrafiltration (UF), LC-MS/MS; settings: for Concentration UF, Average: average of 10 samples; for Concentration UF: serum, individual samples No. 1-10
# Protocol: as §7
# as §2, with “900” for “100”, “300” for “a 100”
# as §8, with “600” for “200”, “ultrafiltrate,” for “dialysate,”, “by” for “by using”
# as §9, §5
# [5] = FT4 in serum by equilibrium dialysis (ED), LC-MS/MS; type: in vitro ADME, human; settings: for Concentration ED, Average: average of 10 samples; for Concentration ED: serum, individual samples No. 1-10
# Excerpt: (§10) In practice, other temperatures can also be used. […] Where
# [6] = FT4 in serum by ultrafiltration (UF), LC-MS/MS; type: in vitro ADME, human; settings: for Concentration UF, Average: average of 10 samples; for Concentration UF: serum, individual samples No. 1-10
# Excerpt: as §10
smiles,measurement,setting,value
"N[C@@H](Cc1cc(I)c(Oc2ccc(O)c(I)c2)c(I)c1)C(=O)O [FT3, triiodothyronine]","Concentration UF, Average",[1]; 20° C.,2.34 pg/mL
same,Concentration UF,[1]; 20° C.,2.54 pg/mL and 2.25 pg/mL and 2.36 pg/mL (2×) and 2.41 pg/mL and 2.32 pg/mL and 2.28 pg/mL and 2.17 pg/mL and 2.52 pg/mL and 2.23 pg/mL
same,"Concentration UF, Average",[1]; 25° C.,2.58 pg/mL
same,Concentration UF,[1]; 25° C.,2.52 pg/mL and 2.62 pg/mL and 2.45 pg/mL and 2.68 pg/mL and 2.58 pg/mL and 2.46 pg/mL and 2.57 pg/mL and 2.65 pg/mL and 2.71 pg/mL and 2.53 pg/mL
same,"Concentration UF, Average",[1]; 30° C.,2.73 pg/mL
same,Concentration UF,[1]; 30° C.,2.68 pg/mL and 2.75 pg/mL (2×) and 2.82 pg/mL and 2.66 pg/mL and 2.78 pg/mL and 2.58 pg/mL and 2.84 pg/mL and 2.72 pg/mL and 2.67 pg/mL
same,"Concentration UF, Average",[1]; 37° C.,3.19 pg/mL
same,Concentration UF,[1]; 37° C.,3.05 pg/mL (2×) and 3.24 pg/mL and 3.13 pg/mL and 3.48 pg/mL and 3.20 pg/mL and 3.18 pg/mL and 3.27 pg/mL and 3.08 pg/mL and 3.17 pg/mL
same,"Concentration ED, Average",[2]; 20° C.,2.40 pg/mL
same,Concentration ED,[2]; 20° C.,2.45 pg/mL and 2.62 pg/mL and 2.25 pg/mL and 2.35 pg/mL and 2.48 pg/mL and 2.36 pg/mL and 2.27 pg/mL and 2.46 pg/mL and 2.42 pg/mL and 2.31 pg/mL
same,"Concentration ED, Average",[2]; 25° C.,2.61 pg/mL
same,Concentration ED,[2]; 25° C.,2.65 pg/mL and 2.75 pg/mL and 2.52 pg/mL and 2.61 pg/mL and 2.48 pg/mL and 2.54 pg/mL and 2.68 pg/mL and 2.70 pg/mL and 2.63 pg/mL and 2.57 pg/mL
same,"Concentration ED, Average",[2]; 30° C.,2.77 pg/mL
same,Concentration ED,[2]; 30° C.,2.72 pg/mL and 2.65 pg/mL and 2.85 pg/mL (2×) and 2.88 pg/mL and 2.68 pg/mL and 2.76 pg/mL and 2.78 pg/mL (2×) and 2.71 pg/mL
same,2nd conc. (ED),"[2]; 37° C. equilibrium dialysis 22 h, 60 different serum specimens",3.05 and 3.18 and 3.17 and 3.22 and 3.04 and 3.24 and 3.19 and 3.48
same,"Concentration ED, Average",[2]; 37° C.,3.22 pg/mL
same,Concentration ED,[2]; 37° C.,3.13 pg/mL and 3.22 pg/mL and 3.04 pg/mL and 3.32 pg/mL and 3.15 pg/mL and 3.31 pg/mL (2×) and 3.34 pg/mL and 3.28 pg/mL and 3.12 pg/mL
"C[C@]12CC[C@H]3[C@@H](CCC4=CC(=O)CC[C@@]43C)[C@@H]1CC[C@@H]2O [free testosterone, testosterone]","Concentration ED, Average",[3]; 20° C.,4.08 pg/mL
same,Concentration ED,[3]; 20° C.,4.05 pg/mL (2×) and 4.17 pg/mL and 3.94 pg/mL and 4.21 pg/mL and 3.85 pg/mL and 4.18 pg/mL and 4.01 pg/mL and 4.16 pg/mL and 4.22 pg/mL
same,"Concentration ED, Average",[3]; 25° C.,4.55 pg/mL
same,Concentration ED,[3]; 25° C.,4.75 pg/mL and 4.61 pg/mL and 4.48 pg/mL and 4.56 pg/mL and 4.41 pg/mL and 4.62 pg/mL and 4.57 pg/mL and 4.42 pg/mL and 4.50 pg/mL and 4.54 pg/mL
same,"Concentration ED, Average",[3]; 30° C.,4.93 pg/mL
same,Concentration ED,[3]; 30° C.,5.04 pg/mL and 5.01 pg/mL and 4.95 pg/mL and 5.02 pg/mL and 4.85 pg/mL and 4.87 pg/mL and 4.91 pg/mL and 4.98 pg/mL and 4.84 pg/mL and 4.82 pg/mL
same,"Concentration ED, Average",[3]; 37° C.,5.21 pg/mL
same,Concentration ED,[3]; 37° C.,5.40 pg/mL and 4.95 pg/mL and 5.23 pg/mL and 5.42 pg/mL and 5.12 pg/mL and 5.32 pg/mL and 5.22 pg/mL and 5.27 pg/mL and 5.13 pg/mL and 5.07 pg/mL
same,"Concentration UF, Average",[4]; 20° C.,4.12 pg/mL
same,Concentration UF,[4]; 20° C.,4.26 pg/mL and 4.29 pg/mL and 4.01 pg/mL and 4.38 pg/mL and 3.98 pg/mL and 3.92 pg/mL and 4.15 pg/mL and 4.12 pg/mL and 3.97 pg/mL and 4.07 pg/mL
same,"Concentration UF, Average",[4]; 25° C.,4.50 pg/mL
same,Concentration UF,[4]; 25° C.,4.37 pg/mL and 4.64 pg/mL (2×) and 4.51 pg/mL (2×) and 4.45 pg/mL and 4.39 pg/mL and 4.48 pg/mL and 4.43 pg/mL and 4.61 pg/mL
same,"Concentration UF, Average",[4]; 30° C.,4.81 pg/mL
same,Concentration UF,[4]; 30° C.,4.69 pg/mL and 4.96 pg/mL (2×) and 4.83 pg/mL and 4.79 pg/mL and 4.58 pg/mL and 4.85 pg/mL and 4.91 pg/mL and 4.74 pg/mL and 4.77 pg/mL
same,"Concentration UF, Average",[4]; 37° C.,5.16 pg/mL
same,Concentration UF,[4]; 37° C.,5.12 pg/mL and 5.28 pg/mL and 5.30 pg/mL and 5.04 pg/mL and 5.16 pg/mL (2×) and 5.18 pg/mL and 5.24 pg/mL and 5.03 pg/mL and 5.07 pg/mL
"N[C@@H](Cc1cc(I)c(Oc2cc(I)c(O)c(I)c2)c(I)c1)C(=O)O [FT4, thyroxine]","Concentration ED, Average",[5]; 20° C.,6.83 pg/mL
same,Concentration ED,[5]; 20° C.,7.05 pg/mL (2×) and 6.91 pg/mL and 6.85 pg/mL and 6.76 pg/mL and 6.71 pg/mL and 6.42 pg/mL and 6.83 pg/mL and 6.84 pg/mL and 6.90 pg/mL
same,"Concentration ED, Average",[5]; 25° C.,8.53 pg/mL
same,Concentration ED,[5]; 25° C.,8.37 pg/mL and 8.33 pg/mL and 8.83 pg/mL and 8.05 pg/mL and 8.24 pg/mL and 8.94 pg/mL and 8.47 pg/mL and 8.69 pg/mL and 8.73 pg/mL and 8.65 pg/mL
same,"Concentration ED, Average",[5]; 30° C.,10.80 pg/mL
same,Concentration ED,[5]; 30° C.,10.91 pg/mL and 11.07 pg/mL and 11.18 pg/mL and 10.63 pg/mL (2×) and 10.46 pg/mL and 10.98 pg/mL and 10.74 pg/mL and 10.67 pg/mL and 10.75 pg/mL
same,"Concentration ED, Average",[5]; 37° C.,14.22 pg/mL
same,Concentration ED,[5]; 37° C.,14.17 pg/mL and 14.64 pg/mL and 13.61 pg/mL and 14.22 pg/mL and 14.67 pg/mL and 14.63 pg/mL and 13.94 pg/mL and 14.15 pg/mL and 14.11 pg/mL and 14.06 pg/mL
same,"Concentration UF, Average",[6]; 20° C.,6.85 pg/mL
same,Concentration UF,[6]; 20° C.,7.21 pg/mL and 6.77 pg/mL and 6.78 pg/mL (2×) and 6.40 pg/mL and 6.94 pg/mL and 6.85 pg/mL and 7.01 pg/mL and 6.90 pg/mL and 6.81 pg/mL
same,"Concentration UF, Average",[6]; 25° C.,8.51 pg/mL
same,Concentration UF,[6]; 25° C.,7.92 pg/mL and 8.97 pg/mL and 8.74 pg/mL and 8.58 pg/mL and 8.14 pg/mL and 8.06 pg/mL and 8.57 pg/mL and 8.72 pg/mL and 8.63 pg/mL and 8.76 pg/mL
same,"Concentration UF, Average",[6]; 30° C.,10.58 pg/mL
same,Concentration UF,[6]; 30° C.,10.73 pg/mL and 9.82 pg/mL and 10.55 pg/mL and 10.61 pg/mL and 10.97 pg/mL and 10.75 pg/mL and 10.82 pg/mL and 10.57 pg/mL and 10.33 pg/mL and 10.63 pg/mL
same,"Concentration UF, Average",[6]; 37° C.,14.00 pg/mL
same,Concentration UF,[6]; 37° C.,13.45 pg/mL and 13.82 pg/mL and 14.14 pg/mL and 13.57 pg/mL and 14.22 pg/mL and 14.58 pg/mL and 13.74 pg/mL and 14.05 pg/mL and 14.26 pg/mL and 14.16 pg/mL
